# Assay results taken from patent US20230242558A1, “NICOTINATE AND NICOTINAMIDE RIBOSIDE-BASED COMPOUNDS AND DERIVATIVES THEREOF” (New Frontier Bio, Inc., priority 2022, published 2023).
# System: HaCaT cells
# Experiment: NAD assay in HaCaT cells, total NAD level normalized to protein
# Format: cell-based
# Conditions: 4 hours incubation, concentration not given
# Procedure: The biological activity of certain compounds disclosed herein was determined using the following method: • 1. Plate HaCaT cells in 12-well tissue culture plates at a density of 200,000 cells per well in 0.75 mL DMEM growth medium. Incubate overnight at 37° C. in a incubator at 5% CO2. • 2. Next day, prepare dilutions of each compound in growth medium at the desired final concentration. • 3. Incubate cells as above for 4 hours. • 4. After the incubation, wash cell monolayers in each well with 200 uL PBS and add 200 uL 0.25% Trypsin. Let cells lift for 15 minutes. • 5. Once cells are lifted, collect cells into sterile 1.5 mL Eppendorf tube containing 400 uL of DMEM w/2% HI FBS. • 6. Centrifuge tubes for 500×g for 5 min. • 7. Aspirate supernatant and wash cells with 200 uL of cold PBS. • 8. Centrifuge tubes for 500×g for 5 min. • 9. Aspirate supernatant and add 400 μL of cold extraction buffer (provided in the NAD assay kit) and vortex each tube for 10 seconds. • 10. Centrifuge samples at 13,000×g for 10 min to remove insoluble material. • 11. Use a small aliquot of extract to determine total protein concentration by BCA protein assay kit. • 12. Deproteinize samples by filtering them through a 10 kDa cut-off spin filter. Centrifuge at 13,000×g for 10 min. • 13. After cell lysate is filtered, load 25 uL of samples to 96 well plate for NAD assay. • 14. Add 25 uL of extraction buffer to each well with samples to dilute them 1:2. Add 50 uL of standards to appropriate wells. • 15. Set up master reaction mix of cycling buffer and NAD cycling enzyme mix. Add 100 uL of mix to each well and incubate for […]. • 16. Add 10 uL of developer into each well. • 17. Let plate incubate at room temperature for 1 hr. • 18. Stop the reaction by adding 10 uL of stop solution into each well and mix well. • 19. Measure absorbance at 450 nm using plate reader. • 20. Plot standard curve and normalize data to determine total NAD level.
row,Compound,NAD+ level
1,CC(C)Cc1ccc(C(C)C(=O)NCCNC(=O)c2cccnc2)cc1 (centres unmarked),697 pmol/mg protein
2,COC(=O)c1ccc[n+]([C@@H]2O[C@H](COC(C)=O)[C@@H](OC(C)=O)[C@H]2OC(C)=O)c1,323 pmol/mg protein
3,CC(=O)OC[C@H]1O[C@@H]([n+]2cccc(C(=O)Sc3ccccc3)c2)[C@H](OC(C)=O)[C@@H]1OC(C)=O,<1 pmol/mg protein
4,O=C(Sc1ccccc1)c1ccc[n+]([C@@H]2O[C@H](CO)[C@@H](O)[C@H]2O)c1,<1 pmol/mg protein
5,CCOC(=O)c1ccc[n+]([C@@H]2O[C@H](COC(C)=O)[C@@H](OC(C)=O)[C@H]2OC(C)=O)c1,674 pmol/mg protein
6,CC(C)(C)OC(=O)c1ccc[n+]([C@@H]2O[C@H](COP(=O)([O-])O)[C@@H](O)[C@H]2O)c1,<1 pmol/mg protein
7,CC(C)(C)OC(=O)c1ccc[n+]([C@@H]2O[C@H](CO)[C@@H](O)[C@H]2O)c1,1162 pmol/mg protein
8,O=C(Oc1ccc(/C=C/c2cc(OC(=O)c3cccnc3)cc(OC(=O)c3cccnc3)c2)cc1)c1cccnc1,616 pmol/mg protein
9,CC1CCC(C(C)C)C(OC(=O)c2cccnc2)C1 (centres unmarked),<1 pmol/mg protein
10,CCC(=O)OC[C@H]1O[C@@H]([n+]2cccc(C(=O)O)c2)[C@H](OC(=O)CC)[C@@H]1OC(=O)CC,667 pmol/mg protein
11,CC(C)(C)OC(=O)CCCCCCCCCCCCCCCCC(=O)NCCNC(=O)c1cccnc1,460 pmol/mg protein
12,[2H]c1nc([2H])c(C(=O)NCCCCCC[P+](c2ccccc2)(c2ccccc2)c2ccccc2)c([2H])c1[2H],435 pmol/mg protein
13,O=C(Cc1ccccc1Nc1c(Cl)cccc1Cl)NCCNC(=O)c1cccnc1,338 pmol/mg protein
14,CC(=O)OC[C@H]1O[C@@H]([n+]2cccc(C(=O)OCc3ccccc3)c2)[C@H](OC(C)=O)[C@@H]1OC(C)=O,426 pmol/mg protein
15,O=C(O)c1ccc[n+]([C@@H]2O[C@H](COC(=O)c3cccnc3)[C@@H](OC(=O)c3cccnc3)[C@H]2OC(=O)c2cccnc2)c1,656 pmol/mg protein
16,O=C(OCc1ccccc1)c1ccc[n+]([C@@H]2O[C@H](CO)[C@@H](O)[C@H]2O)c1,463 pmol/mg protein
17,CC(=O)OC[C@H]1O[C@@H]([n+]2cccc(C(=O)O)c2)[C@H](OC(C)=O)[C@@H]1OC(C)=O,311 pmol/mg protein
18,CC(=O)OC[C@H]1O[C@@H]([n+]2cccc(C(=O)OC(C)(C)C)c2)[C@H](OC(C)=O)[C@@H]1OC(C)=O,<1 pmol/mg protein
19,O=C(OCCO)c1cccnc1,501 pmol/mg protein
20,NCCNC(=O)c1cccnc1,587 pmol/mg protein
21,O=C(NCCNCCC[P+](c1ccccc1)(c1ccccc1)c1ccccc1)c1cccnc1,391 pmol/mg protein

row,Compound,NAD+ level
1,O=C(NCCNCCCCCC[P+](c1ccccc1)(c1ccccc1)c1ccccc1)c1cccnc1,378 pmol/mg protein
2,O=C(Oc1ccc2c(c1)oc(=O)c1cc(O)ccc12)c1cccnc1,681 pmol/mg protein
3,O=C(OCCCCCC[P+](c1ccccc1)(c1ccccc1)c1ccccc1)c1cccnc1,<1 pmol/mg protein
4,O=C(OCCOCCC[P+](c1ccccc1)(c1ccccc1)c1ccccc1)c1cccnc1,<1 pmol/mg protein
5,O=C(OCCC[P+](c1ccccc1)(c1ccccc1)c1ccccc1)c1cccnc1,576 pmol/mg protein
6,O=C(NC[P+](c1ccccc1)(c1ccccc1)c1ccccc1)c1cccnc1,521 pmol/mg protein
7,O=C(OC[P+](c1ccccc1)(c1ccccc1)c1ccccc1)c1cccnc1,319 pmol/mg protein
8,O=C(NCC[P+](c1ccccc1)(c1ccccc1)c1ccccc1)c1cccnc1,466 pmol/mg protein
9,O=C(NCCC[P+](c1ccccc1)(c1ccccc1)c1ccccc1)c1cccnc1,560 pmol/mg protein
10,O=C(CCCCC[P+](c1ccccc1)(c1ccccc1)c1ccccc1)NCCNC(=O)c1cccnc1,607 pmol/mg protein
11,CCCCCCCCCCCCCCOC(=O)c1ccc[n+]([C@@H]2O[C@H](CO)[C@@H](O)[C@H]2O)c1,<1 pmol/mg protein
12,CCCCCCCCCCCCCCOC(=O)c1ccc[n+]([C@@H]2O[C@H](COC(C)=O)[C@@H](OC(C)=O)[C@H]2OC(C)=O)c1,<1 pmol/mg protein
13,CCCCCCCCCCCCCCOC(=O)c1ccc[n+]([C@@H]2O[C@H](COP(=O)([O-])O)[C@@H](O)[C@H]2O)c1,475 pmol/mg protein
14,O=C(OCC[P+](c1ccccc1)(c1ccccc1)c1ccccc1)c1cccnc1,<1 pmol/mg protein
15,CCCCCCCCCCCCCCNC(=O)c1ccc[n+]([C@@H]2O[C@H](COC(C)=O)[C@@H](OC(C)=O)[C@H]2OC(C)=O)c1,<1 pmol/mg protein
16,NCCOC(=O)c1cccnc1,562 pmol/mg protein
17,CCCC(=O)OC[C@H]1O[C@@H]([n+]2cccc(C(=O)O)c2)[C@H](OC(=O)CCC)[C@@H]1OC(=O)CCC,831 pmol/mg protein
18,CC1=C(/C=C/C(C)=C/C=C/C(C)=C/C(=O)NCCNC(=O)c2cccnc2)C(C)(C)CCC1,815 pmol/mg protein
19,CC(=O)OC[C@H]1O[C@@H]([n+]2cccc(C(=O)NCCCCCC[P+](c3ccccc3)(c3ccccc3)c3ccccc3)c2)[C@H](OC(C)=O)[C@@H]1OC(C)=O,565 pmol/mg protein
20,CC(=O)OC[C@H]1O[C@@H]([n+]2cccc(C(=O)NCCNC(=O)c3ccc[n+]([C@@H]4O[C@H](COC(C)=O)[C@@H](OC(C)=O)[C@H]4OC(C)=O)c3)c2)[C@H](OC(C)=O)[C@@H]1OC(C)=O,354 pmol/mg protein
21,CC(=O)OC[C@H]1O[C@@H]([n+]2cccc(C(=O)NCCNC(=O)CCCCC[P+](c3ccccc3)(c3ccccc3)c3ccccc3)c2)[C@H](OC(C)=O)[C@@H]1OC(C)=O,311 pmol/mg protein

row,Compound,NAD+ level
1,CC(=O)OC[C@H]1O[C@@H]([n+]2cccc(C(=O)NCCC[P+](c3ccccc3)(c3ccccc3)c3ccccc3)c2)[C@H](OC(C)=O)[C@@H]1OC(C)=O,292 pmol/mg protein
2,O=C(NCCCCCC[P+](c1ccccc1)(c1ccccc1)c1ccccc1)c1ccc[n+]([C@@H]2O[C@H](CO)[C@@H](O)[C@H]2O)c1,285 pmol/mg protein
3,CC(C)Cc1ccc(C(C)C(=O)OCCOC(=O)c2cccnc2)cc1 (centres unmarked),539 pmol/mg protein
4,CCCCCc1cc(OC(=O)c2cccnc2)c2c(c1)OC(C)(CCC=C(C)C)C=C2 (centres unmarked),375 pmol/mg protein
5,O=C(OCCOCCCCCC[P+](c1ccccc1)(c1ccccc1)c1ccccc1)c1cccnc1,230 pmol/mg protein
6,O=C(CCCCC[P+](c1ccccc1)(c1ccccc1)c1ccccc1)NCCOC(=O)c1cccnc1,<1 pmol/mg protein
7,O=C(NCc1ccccc1)c1ccc[n+]([C@@H]2O[C@H](CO)[C@@H](O)[C@H]2O)c1,274 pmol/mg protein
8,O=C(CCCC[P+](c1ccccc1)(c1ccccc1)c1ccccc1)NCCNC(=O)c1cccnc1,495 pmol/mg protein
9,O=C(CCCC[P+](c1ccccc1)(c1ccccc1)c1ccccc1)NCCOC(=O)c1cccnc1,508 pmol/mg protein
10,O=C(OCCOCCCCCCCCC[P+](c1ccccc1)(c1ccccc1)c1ccccc1)c1cccnc1,<1 pmol/mg protein
11,O=C(NCCNCCCCCCCCC[P+](c1ccccc1)(c1ccccc1)c1ccccc1)c1cccnc1,395 pmol/mg protein
12,CCCCCCCCCCCCCCNC(=O)c1ccc[n+]([C@@H]2O[C@H](CO)[C@@H](O)[C@H]2O)c1,<1 pmol/mg protein
13,CC(=O)OC[C@H]1O[C@@H]([n+]2cccc(C(=O)OCCOC(=O)c3ccc[n+]([C@@H]4O[C@H](COC(C)=O)[C@@H](OC(C)=O)[C@H]4OC(C)=O)c3)c2)[C@H](OC(C)=O)[C@@H]1OC(C)=O,655 pmol/mg protein
14,CC(=O)OC[C@H]1O[C@@H]([n+]2cccc(C(=O)OC3CC(C)CCC3C(C)C)c2)[C@H](OC(C)=O)[C@@H]1OC(C)=O (some centres unmarked),258 pmol/mg protein
15,CC1CCC(C(C)C)C(OC(=O)c2ccc[n+]([C@@H]3O[C@H](CO)[C@@H](O)[C@H]3O)c2)C1 (some centres unmarked),464 pmol/mg protein
16,CC(=O)Oc1cc(/C=C/c2ccc(OC(=O)c3cccnc3)cc2)cc(OC(C)=O)c1,122 pmol/mg protein
17,O=C(Oc1ccc(/C=C/c2cc(O)cc(O)c2)cc1)c1ccc[n+]([C@@H]2O[C@H](CO)[C@@H](O)[C@H]2O)c1,94 pmol/mg protein
18,CC(=O)OC[C@H]1O[C@@H]([n+]2cccc(C(=O)Oc3ccc(/C=C/c4cc(OC(C)=O)cc(OC(C)=O)c4)cc3)c2)[C@H](OC(C)=O)[C@@H]1OC(C)=O,<1 pmol/mg protein
19,CC1CCC(C(C)C)C(OC(=O)c2ccc[n+]([C@@H]3O[C@H](COP(=O)([O-])O)[C@@H](O)[C@H]3O)c2)C1 (some centres unmarked),472 pmol/mg protein
20,O=C(Oc1cc(OC(=O)c2cccnc2)c2c(=O)c(O)c(-c3ccc(OC(=O)c4cccnc4)c(OC(=O)c4cccnc4)c3)oc2c1)c1cccnc1,328 pmol/mg protein
